In patent US7557573B2, “NMR-based methods for detecting ligands, where the ligand or target are hyperpolarized and the NMR-spectrum is compared with a reference spectrum of the ligand or target” (GE Healthcare AS, priority 2002, dated 2009):

Assays:
[1] = test system: Urease; test: Hyperpolarised 13C-urea NMR assay of enzymatic conversion and its inhibition; conditions: 10, 12 and 14 units urease, substrate concentration constant
Procedure: The frozen sample was hyperpolarised for one hour (DNP method). The sample was dissolved in a phosphate buffer (10 mM, pH 7.6, 100° C., 8.5 ml (active dissolution volume 3 ml)) and 500 μl were transferred to a 10 mm NMR tube containing 2.5 ml of a solution (same buffer as for urea) containing 12 units urease (0.1 mg). A series of 40 one-dimensional ^13C spectra were collected as one every 3 s, with a reduced flip angle (15°).
It is possible to calibrate the flip angle, and the relaxation rate for urea is known. […] Another way of calculating the reaction rate for the system is to vary the enzyme concentration while keeping the concentration of substrate constant.
The latter approach was used in a series of experiments that were performed as described above, only the concentration of urease was varied. Three experiments were performed with 10 units, 12 units and 14 units urease. The urease activity was plotted as a function of concentration. From this plot, the reaction rate constant was extracted directly. The NMR signal intensities of urea in the individual experiments have been used to calculate the enzymatic activity.

[2] = test system: Src homology domain 2 from growth binding hormone; test: Hyperpolarised (DNP) 13C-NMR binding assay, ligand free vs bound signals; conditions: target to ligand ratio 4:1, ligand 24 μM, 25° C., single scan
Procedure: The sample was placed in the polariser and hyperpolarised overnight (17 h) at 93.934 GHz and 100 mW (DNP method). The sample was brought into solution with phosphate buffer (pH 6.5, 100 mM, 60° C., 8.5 ml). The active dissolution volume was 3 ml with 90% recovery of substance, providing a final concentration of 5.7 μM. […] A liquid state NMR spectrum was acquired in one scan with a 90° pulse angle and acquisition time of 1 s. One NMR signal was obtained at 176.9 ppm from the ^13C-labeled ligand. The signal-to-noise ratio (SNR) of the spectrum was 50.
940 μl of the target solution (100 μM target, 5 mM DTT, 100 mM NaCl, 50 mM phosphate pH 6.5) was placed in 10 mm NMR tube with a bottom plug, reducing the active volume to […]. The tube was placed in a 9.4 T magnet with the temperature of the probe equilibrated to 25° C. A tube was connected to the bottom of the NMR tube to allow for injection of the ligand solution into the target solution.
The sample was placed in the polariser and hyperpolarised overnight (17 h) at 93.934 GHz and 100 mW (DNP method). […]
In this example, the target to ligand concentration ratio was 4:1. […] By varying the ligand to target concentration in the assay it would thus be possible to measure the binding affinity by quantifying the relative amounts of free and bound ligand visible in the spectra based on the knowledge of ligand/target concentrations used in the assay.

[3] = test system: Src homology domain 2 from growth binding hormone; conditions: cited from earlier work

| Molecule | rate constant for the system (enzymatic conversion of urea) [1] [s⁻¹] | NMR signals of hyperpolarised ligand in mixture with target (free/bound) [2] | exchange regime of ligand with the target [3] |
| --- | --- | --- | --- |
| NC(N)=O [urea] | 0.0019 |  |  |
| (1-^13C)—Ac—EpYINQ—NH2 |  | two signals, one from the unbound ligand (176.94 ppm) and one from the bound ligand (176.2 ppm) | slow exchange with the target |
